For orientation: pIC50 means the negative decadic logarithm of the IC50, by convention in mol/L.

Structures can show the parent of a compound that is named as a salt.

The subject of one series is human hepatocytes. Description: Determination of metabolic intrinsic clearance (CLint) using human hepatocytes. The series is classed as in vitro ADME. The conditions noted are these: 1 μM substrate, 37° C., n=3. How it is done:
Compound stocks were prepared in dimethyl sulfoxide at 100-fold incubation concentration (100 μM). 10 μl of this 100 μM stock was added to a vial containing 490 μl of hepatocyte suspension buffer (without serum). A vial containing either human hepatocytes at a concentration of 2 million viable cells/ml was pre-incubated for 5 min in a shaking (80 oscillations/min) water bath at 37° C. along with the vial containing the drug/buffer mix.
Reactions were initiated by adding 500 μl of hepatocyte suspension to the 500 μl of drug/buffer mix (giving a final substrate concentration of 1 μM at 1% v/v dimethyl sulfoxide). Aliquots (40 μl) were removed at 5, 15, 30, 45, 60, 75 90 & 120 min and reactions were quenched in 80 μl of ice-cold methanol. Samples were subsequently frozen for 1 h at −20° C. and then centrifuged at 2000 g for 20 min at 4° C. The supernatants were removed and analysed by MS/MS and Clint was estimated from the slope of a natural Log of MS/MS response versus time plot. Using physiological scaling factors to account for hepatocellularity and liver weight in the human (Ito and Houston, 2004) hepatic blood clearance was predicted (Clh) using the method outlined by Riley et al., 2005. Typical acid drugs showing an intrinsic clearance value in this assay of <2 μl/min/e^6 cells show robust half lives in man consistent with a once-daily dose intervals. […]

For another series, the target named is T1, rhCRTh2 (Homo sapiens, UniProt Q9Y5Y4).
T1 construct: expressed in transfected cells; host or cells: HEK cells (membrane preparation)
T1 sequence (Q9Y5Y4 1-395): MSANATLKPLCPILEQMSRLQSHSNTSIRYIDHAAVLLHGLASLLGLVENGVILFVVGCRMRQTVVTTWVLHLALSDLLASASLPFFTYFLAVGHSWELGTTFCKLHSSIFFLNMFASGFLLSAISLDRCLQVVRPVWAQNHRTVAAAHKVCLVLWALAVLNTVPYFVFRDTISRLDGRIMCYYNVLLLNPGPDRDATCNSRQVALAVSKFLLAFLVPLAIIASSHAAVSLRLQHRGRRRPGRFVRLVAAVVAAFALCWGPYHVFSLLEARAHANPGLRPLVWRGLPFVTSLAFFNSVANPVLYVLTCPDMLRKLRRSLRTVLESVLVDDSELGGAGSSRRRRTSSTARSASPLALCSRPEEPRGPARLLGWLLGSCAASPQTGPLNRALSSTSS
The experiment in a line: Ligand binding assay ([3H]PGD2, SPA, HEK cell membranes). The conditions noted are these: [3H]PGD2 binding to HEK cell membranes containing CRTh2, RT 2 hours.

Series [1] is described as follows: Water uptake by GVS (gravimetric vapour sorption). The note with it: between RH of 0% -80%, as measured by GVS. The series is classed as physicochemical. How it is done: • XRPD data were collected using either a PANalytical CubiX PRO machine or a Philips X-Pert MPD machine. • XRPD—PANalytical CubiX PRO • Data was collected with a PANalytical CubiX PRO machine in θ-θ configuration over the scan range 2° to 40° 2θ with 100-second exposure per 0.02° increment. The X-rays were generated by a copper long-fine focus tube operated at 45 kV and 40 mA. The wavelength of the copper X-rays was 1.5418 Å. The data was collected on zero background holders on which ˜2 mg of the compound was placed. The holder was made from a single crystal of silicon, which had been cut along a non-diffracting plane and then polished on an optically flat finish. […] The X-rays incident upon this surface were negated by Bragg extinction. • DSC thermograms were measured using a TA Q1000 Differential Scanning Calorimeter, with aluminium pans and pierced lids. […] The procedure was carried out under a flow of nitrogen gas (50 ml/min) and the temperature studied from 25 to 300° C. at a constant rate of temperature increase of 10° C. per minute. • GVS profiles were measured using a Dynamic Vapour Sorption DVS-1 instrument. The solid sample ca. 1-5 mg was placed into a glass vessel and the weight of the sample was recorded during a dual cycle step method (40 to 90 to 0 to 90 to 0% relative humidity (RH), in steps of 10% RH).

Description for rhCRTh2: HEK cells expressing rhCRTh2/Gα16 were routinely maintained in DMEM containing 10% Foetal Bovine Serum (HyClone), 1 mg/ml geneticin, 2 mM L-glutamine and 1% non-essential amino acids. For the preparation of membranes, the adherent transfected HEKcells were grown to confluence in two layer tissue culture factories (Fisher, catalogue number TKT-170-[MUT]). Maximal levels of receptor expression were induced by addition of 500 mM sodium butyrate for the last 18 hours of culture. The adherent cells were washed once with phosphate buffered saline (PBS, 50 ml per cell factory) and detached by the addition of 50 ml per cell factory of ice-cold membrane homogenisation buffer [20 mM HEPES (pH 7.4), 01. mM dithiothreitol, 1 mM EDTA, 0.1 mM phenyl methyl sulphonyl fluoride and 100 μg/ml bacitracin]. […] The final pellet was re-suspended in 4 ml of membrane homogenisation buffer per cell factory used and the protein content determined. […] (The optimum coating concentrations were determined for each batch of membranes) The beads were pelleted by centrifugation (800×g for 7 minutes at 4° C.), washed once with assay buffer (50 mM HEPES pH 7.4 containing 5 mM magnesium chloride) and finally re-suspended in assay buffer at a bead concentration of 10 mg/ml. […] The assay plate was incubated at RT for 2 hours and counted on a Wallac Microbeta liquid scintillation counter (1 minute per well).

As for `C[C@H](Oc1ccc(F)cc1-c1ccc(C(=O)N2CCCC2(C)C)c(Cl)c1)C(=O)O` [Example 1, (2S)-2-({3′-chloro-4′-[(2,2-dimethylpyrrolidin-1-yl)carbonyl]-5-fluorobiphenyl-2-yl}oxy)propanoic acid], the Clint with human hepatocytes is recorded as below 1 μl/min/e^6. For the same compound, the negative logarithm of the IC50 (pIC50) on rhCRTh2 is given as 8.4.

Consider `C[C@H](Oc1ccc(F)cc1-c1ccc(C(=O)N2CCCC2(C)C)c(Cl)c1)C(=O)O` [Example 2, (2S)-2-({3′-chloro-4′-[(2,2-dimethylpyrrolidin-1-yl)carbonyl]-5-fluorobiphenyl-2-yl}oxy)propanoic acid 2-methylpropan-2-amine salt], for which the water uptake in series [1] (listed as example 2 polymorph A) turned out to be 0.6%. With `C[C@H](Oc1ccc(F)cc1-c1ccc(C(=O)N2CCCC2(C)C)c(Cl)c1)C(=O)O` [Example 4, (2S)-2-({3′-chloro-4′-[(2,2-dimethylpyrrolidin-1-yl)carbonyl]-5-fluorobiphenyl-2-yl}oxy)propanoic acid crystaline free acid], the water uptake in series [1] (listed as example 4 polymorph A) is given as 0.7%.

Values taken from patent publication US8507544B2, “Bi-aryl amide compounds as CRTh2 receptor modulators” (Astrazeneca AB, priority 2007, dated 2013).
